# Publication PMC8981238, “C-type cytochrome-initiated reduction of bacterial lytic polysaccharide monooxygenases” (Biochemical Journal, 2021)
# Target: T1, CfAA10 (Cellulomonas fimi, UniProt F4H6A3)
# T1 construct: gene Celf_0270; apparently with its C-terminal CBM (truncation told only for the C. japonicus enzyme)
# Test: Amplex Red / horseradish peroxidase coupled H2O2 production, initial rates
# Format: biochemical
# Conditions: reductant varied, no polysaccharide, O2 from air, 50 mM sodium phosphate pH 6.0, room temperature, 2 µM LPMO
# T1 sequence (F4H6A3 entry or part of it): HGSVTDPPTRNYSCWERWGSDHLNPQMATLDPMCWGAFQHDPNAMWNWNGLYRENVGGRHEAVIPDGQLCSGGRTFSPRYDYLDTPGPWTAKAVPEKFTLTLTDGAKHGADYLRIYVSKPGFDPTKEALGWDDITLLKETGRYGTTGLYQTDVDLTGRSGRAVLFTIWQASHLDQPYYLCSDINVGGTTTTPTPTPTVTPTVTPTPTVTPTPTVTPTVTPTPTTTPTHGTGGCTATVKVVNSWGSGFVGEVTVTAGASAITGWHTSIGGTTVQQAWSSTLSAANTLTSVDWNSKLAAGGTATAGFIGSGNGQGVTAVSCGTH
compound,measurement,value
O=C1O[C@H]([C@@H](O)CO)C(O)=C1O [ascorbate],KM,KM is consistently lower when CjX183 is used as the reductant compared with ascorbate
